Measurements reported in patent US8334280B2, “Ligands of estrogen receptors α and β, method of their preparation, and pharmaceuticals comprising them” (Ustav Molekularni Genetikv AV CR, V.V.I., priority 2008, dated 2012).

Key:
Format in all cases: cell-based
human ERβ = molecular target: T1, human ERβ (Homo sapiens, UniProt Q92731); assay: reporter assay (luciferase) in COS-7 cells transfected with human ERβ; conditions: for EC50: COS-7 cells, 24 h with compound, luciferase, read-out: EC50 of tested ligands in the reporter assays, ER β; for ligand selectivity for ERβ in the reporter assays: ratio of relative activities of ERα and ERβ, E2 = 1.00
T1 construct: expressed in transfected cells; host or cells: COS-7
T1 sequence (Q92731 whole entry): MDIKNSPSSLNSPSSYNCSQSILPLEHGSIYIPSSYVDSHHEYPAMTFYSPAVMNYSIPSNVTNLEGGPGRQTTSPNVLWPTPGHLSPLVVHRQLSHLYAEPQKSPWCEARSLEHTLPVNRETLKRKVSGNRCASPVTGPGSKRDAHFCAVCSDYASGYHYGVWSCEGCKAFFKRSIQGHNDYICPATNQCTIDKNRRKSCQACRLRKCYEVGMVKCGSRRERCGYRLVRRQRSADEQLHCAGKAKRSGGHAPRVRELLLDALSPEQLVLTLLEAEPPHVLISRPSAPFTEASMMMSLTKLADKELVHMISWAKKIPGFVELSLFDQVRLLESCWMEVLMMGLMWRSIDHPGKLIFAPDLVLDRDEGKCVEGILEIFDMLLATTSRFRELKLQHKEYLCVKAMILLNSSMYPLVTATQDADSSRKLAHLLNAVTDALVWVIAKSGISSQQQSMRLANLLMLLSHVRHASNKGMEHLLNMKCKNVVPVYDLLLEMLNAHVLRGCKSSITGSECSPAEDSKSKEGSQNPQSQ
Experimental: (§1) The activity of some of the selected novel ligands of estrogen receptors was determined in reporter assays with the COS-7 cells. The reporter assay has an advantage over a classical determination of the ligand binding affinity for the receptor because in the case of steroid hormone receptors the high affinity of the ligand for the receptor doesn't always result in the equally high potency of activating the transcription via the receptor. The COS-7 cell line provides a significant advantage for this type of experiment, since it doesn't express endogenous ERα or ERβ at significant levels, and therefore it is highly suitable for the reporter assays. In addition, these compounds were also tested in the reporter assays with HEK293 cell-line.
(§2) COS-7 cells were transfected with the expression vector encoding human ERα or ERβ and with the reporter vector containing one estrogen responsive element followed by the minimal thymidine kinase promoter from the herpes simples virus. Luciferase was used as a reporter gene. The cells were seeded in a white 96-well plate after transfection, and were further cultivated in the DMEM medium without phenol red containing 2 mM glutamine, 20 mM Hepes, pH 7.5, 5 μg/ml insulin, 5 μg/ml human transferine, 100 μg/m1 bovine serum albumin (BSA). Serially diluted compounds in DMSO were added to cells 24 hours after transfection, and after the next 24 hours the luciferase activity was measured using the commercial STEADY-GLO Luciferase Assay Kit (Promega) according to the manufacturer's instructions. The luminescence was measured using the combined spectrophotometer ENVISION (PerkinElmer) with 1 s signal integration. […] The ligand selectivity for the given receptor was calculated as a ratio of relative activities of ERα and ERβ for the given ligand.

human ERα = molecular target: T2, human ERα (Homo sapiens, UniProt P03372); assay: reporter assay (luciferase) in COS-7 cells transfected with human ERα; conditions: for EC50: COS-7 cells, 24 h with compound, luciferase, read-out: EC50 of tested ligands in the reporter assays, ER α; for ligand selectivity for ERα in the reporter assays: ratio of relative activities of ERα and ERβ, E2 = 1.00
T2 construct: expressed in transfected cells; host or cells: COS-7
T2 sequence (P03372 1-595): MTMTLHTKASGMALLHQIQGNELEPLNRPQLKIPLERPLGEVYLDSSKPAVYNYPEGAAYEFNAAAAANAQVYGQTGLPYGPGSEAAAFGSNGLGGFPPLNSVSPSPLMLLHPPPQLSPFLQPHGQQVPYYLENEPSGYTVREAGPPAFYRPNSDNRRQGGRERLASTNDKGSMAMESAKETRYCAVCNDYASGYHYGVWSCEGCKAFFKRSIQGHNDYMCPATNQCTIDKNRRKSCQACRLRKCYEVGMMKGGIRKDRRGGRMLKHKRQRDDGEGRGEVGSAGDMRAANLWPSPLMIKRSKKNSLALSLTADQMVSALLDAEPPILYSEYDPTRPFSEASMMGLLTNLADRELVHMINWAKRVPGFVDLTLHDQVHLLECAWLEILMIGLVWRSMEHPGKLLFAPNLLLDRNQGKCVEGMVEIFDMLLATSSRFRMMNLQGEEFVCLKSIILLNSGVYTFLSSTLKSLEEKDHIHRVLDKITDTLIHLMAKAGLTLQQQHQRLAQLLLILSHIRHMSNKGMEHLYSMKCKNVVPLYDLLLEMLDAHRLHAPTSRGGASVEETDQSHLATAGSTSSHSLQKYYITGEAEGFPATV
Experimental: as §1, §2

MCF-7 cells = assay: proliferation assay in estrogen-growth-dependent MCF-7 cell line; conditions: for proliferation effect on MCF-7 cells: 1 nM concentration
Experimental: The MCF-7 cell line was derived from a breast adenocarcinoma and, considering its growth dependency on estrogen, it is a valuable tool for evaluation of estrogenic properties of chemical compounds. Since MCF-7 cells express exclusively ERα, the proliferative effect of tested compounds is mediated mainly by this receptor.
MCF-7 cells were cultivated for 6 days in DMEM medium without phenol red containing 8% charcoal treated fetal calf serum and 2 mM glutamine. During this time the cells stopped proliferating and the medium was supplemented with different concentrations of tested compounds in DMSO. The cells were further cultured in the medium described above in the presence of tested compounds, and after 3 days the medium was changed and the tested compounds in DMSO were added to the medium once again. After another 3 days the amount of viable cells was measured using the kit […]-BLUE Cell Viability Assay (Promega) according to the manufacturer's instructions. The fluorescent measurement was carried out on the combined spectrophotometer ENVISION (PerkinElmer), and the results are shown in FIGS. 8 and 9.

Compound	EC50 (human ERβ) [nM]	stimulation of ERα in the reporter assays (human ERα; 1 nM)	EC50 (human ERα) [nM]	ligand selectivity for ERα in the reporter assays (human ERα)	proliferation effect on MCF-7 cells (MCF-7 cells)	ligand selectivity for ERβ in the reporter assays (human ERβ)	toxic effect on MCF-7 cells (MCF-7 cells; high concentrations of ligands (1-10 μM))
Cc1ccc(S(=O)(=O)N2Cc3ccc([C@]4(O)CC[C@H]5[C@@H]6CCc7cc(O)ccc7[C@H]6CC[C@@]54C)cc3C2)cc1 [PN229, 17α-(1,3-Dihydro-2-tosyl-2H-indol-5-yl)-estradiol]	62.7						
CCOC(=O)C1(C(C)=O)Cc2ccc([C@]3(O)CC[C@H]4[C@@H]5CCc6cc(O)ccc6[C@H]5CC[C@@]43C)cc2C1 (stereo partly drawn) [PN207, 17α-[2-Acetyl-2-(ethoxycarbonyl)-1,3-dihydro-2H-inden-5-yl]-estradiol]	14.5						
C[C@]12CC[C@@H]3c4ccc(O)cc4CC[C@H]3[C@@H]1CC[C@@]2(O)c1ccc2c(c1)CCC2 [PN214, 17α-(1,3-Dihydro-2H-inden-5-yl)-estradiol]	1.08	doesn't stimulate ERα	21.1	0.02	no activity		
CC(=O)C1(C(C)=O)Cc2ccc([C@]3(O)CC[C@H]4[C@@H]5CCc6cc(O)ccc6[C@H]5CC[C@@]43C)cc2C1 [PN228, 17α-(2,2-Diacetyl-1,3-dihydro-2H-inden-5-yl)-estradiol]	60.4		19	1.16		0.86	
C[C@]12CC[C@@H]3c4ccc(O)cc4CC[C@H]3[C@@H]1CC[C@@H]2O [Ligand E2, estradiol, reference compound]							toxic effect
CCOC(=O)C1(C#N)Cc2ccc([C@]3(O)CC[C@H]4[C@@H]5CCc6cc(O)ccc6[C@H]5CC[C@@]43C)cc2C1 (stereo partly drawn) [PN233, 17α-[2-Cyano-2-(ethoxycarbonyl)-1,3-dihydro-2H-inden-5-yl]-estradiol]	12.8						
CCOC(=O)C1(C(=O)OCC)Cc2ccc([C@]3(O)CC[C@H]4[C@@H]5CCc6cc(O)ccc6[C@H]5CC[C@@]43C)cc2C1 [PN202, 17α[2,2-Bis(ethoxycarbonyl)-1,3-dihydro-2H-inden-5-yl]-estradiol]	19.3		3.85	1.83	comparable to estradiol	0.55	
